According to article PMC7318222, “A Family of Water‐Immiscible, Dipolar Aprotic, Diamide Solvents from Succinic Acid” (Chemsuschem, 2020):
“Also recorded” adds a separate entry of the source.

Tests used:
Miscibility with hexane = type: physicochemical; settings: this work
ESRE = ESRE CALUX assay (unfolded protein response); type: cell-based, human; design: key: –: no effect observed up to the highest test concentration; settings: cell signaling pathway assay, 24 h exposure
Excerpt: Six of the CALUX assays (TCF through p53) detect activation of several cellular signaling pathways, which are indicative of general stress and acute toxicity, but also a range of more specific types of toxicity, including reproductive toxicity. […]
(§1) 2-methylimidazole 99.0%, zinc(II) nitrate hexahydrate ≥99.0%, para-cymene 99.0%, 1,4-dioxane 99.8% (anhydrous), 4-nitroaniline ≥99.0%, 1-octanol ≥99.0%, diglyme ≥99.0%, DMSO-d6 (99.8% D) and chloroform-d (99.8% D) were purchased from Sigma-Aldrich. Toluene ≥99.0%, hexane ≥99.5%, DCM ≥99.5%, chloroform ≥99.5%, DMSO ≥99.0% were purchased from VWR. N,N-diethyl-4-nitroaniline ≥98.0% was purchased from Alfa Aeser. Cyrene was supplied by Circa group. N-butylpyrrolidinone was supplied by Eastman chemicals. N,N-dimethylformamide 99.9% and N,N-dimethylacetamide 99.9% were purchased from Fischer. The flakes of Ultrason® E3020 P Polyarylethersulfone of 55,000 Da were obtained from INGE.BASF, Germany. The CALUX cell lines have been described previously.[1] They are based on human U2-OS cells (ATCC, HTB-96) stably transfected with an expression construct for the full-length human receptor under investigation, and a reporter construct consisting of multimerized responsive elements for the cognate receptor coupled to a minimal promoter element (TATA) and a luciferase gene. Cells were maintained as described previously,[2] using cell culture media and supplements from Fisher Scientific as described in the experimental procedures section. […]
(§2) In vitro reporter gene assays
(§3) The automated CALUX assays were carried out similarly as described earlier,[12] with some adaptations. In brief, the assay was performed in CO2 independent medium (Fisher Scientific, […]
(§4) supplement (Fisher Scientific, 11574466), 10 U/mL penicillin and 10 µg/mL streptomycin. A cell suspension in assay medium was made of 1 × 10^5cells/mL, and white 384-wells plates were seeded with 30 µl cell suspension/well. After 24 h, exposure medium was prepared. A dilution series in 0.5log unit increments of each test compound (in DMSO) was added to a 96-wells plate containing assay medium (2% v/v). Of this exposure mixture, 30 µl was added to the assay plates containing the CALUX cells, resulting in a final DMSO concentration of 1%. Additionally, DMSO blanks and a full dose response curve of the relevant reference compound were included on each plate. All samples were tested in triplicate. The preparation of the compound dilution series as well as the exposure of the cells were performed on a Hamilton StarLET liquid handling robot coupled to a Cytomat incubator.
(§5) Directly after exposure, plates were sealed with non-breathing plate seals (Plate sealer, easy seal transparent; Greiner-Bio-One, 676001). After 24 h the exposure medium was removed using an EL406 washer-dispenser (BioTek) and 10 µl/well triton lysisbuffer was added by the EL406.
Subsequently, the luciferase signal was measured in a luminometer (InfinitePro coupled to a Connect Stacker, both TECAN). In order to be able to detect receptor antagonism, several assays were also performed in antagonistic mode. The assay procedure was as described above, with the only exception that the EC50 concentration of the reference agonist was present during the exposure.
(§6) The luminometer data was analysed as follows; the average of the triplicate wells was determined, and the average blank (DMSO) value was subtracted. […] For antagonist- and cytotoxicity experiments, PC20 values were determined instead, which was defined […]

TRβ = biological target: T1, TRβ (Homo sapiens, UniProt P10828); assay: TRβ CALUX reporter gene assay; type: cell-based; design: key: –: no effect observed up to the highest test concentration; settings: PC10, 24 h exposure
T1 construct: expression construct for the full-length human receptor under investigation; expressed in transfected cells; host or cells: human U2-OS cells (ATCC HTB-96), stably transfected
T1 sequence (P10828 1-461): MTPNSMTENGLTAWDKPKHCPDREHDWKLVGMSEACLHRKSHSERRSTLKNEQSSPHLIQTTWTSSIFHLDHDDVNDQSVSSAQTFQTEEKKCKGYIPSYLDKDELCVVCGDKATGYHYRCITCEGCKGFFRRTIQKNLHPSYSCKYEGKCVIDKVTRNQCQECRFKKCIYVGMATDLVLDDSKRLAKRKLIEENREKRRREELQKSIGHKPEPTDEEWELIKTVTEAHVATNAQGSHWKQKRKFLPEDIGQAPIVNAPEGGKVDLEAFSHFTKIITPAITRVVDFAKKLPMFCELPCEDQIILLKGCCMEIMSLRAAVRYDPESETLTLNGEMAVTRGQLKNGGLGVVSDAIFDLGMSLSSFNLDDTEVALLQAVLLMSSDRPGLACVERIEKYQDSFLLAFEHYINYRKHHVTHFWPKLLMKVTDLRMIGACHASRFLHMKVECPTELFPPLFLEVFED
Excerpt: as §1, §2, §3, §4, §5
Subsequently, the luciferase signal was measured in a luminometer (InfinitePro coupled to a Connect Stacker, both TECAN). In order to be able to detect receptor antagonism, several assays were also performed in antagonistic mode. […]
as §6, with “defined as the concentration where the test compound causes a 20% decrease in the basal signal, which was” for “defined”
curve, the signal induction above background (DMSO) was determined, and the concentration where the compound elicited a 1.5-fold increase above background was used as LEC.

[1] = Octanol/water partition coefficient (Log P(o/w)), shake flask method; type: physicochemical; settings: this work
Excerpt: The succindiamides have large, positive Log P (o/w) values, meaning they favor the organic layer in an octanol/water biphasic system and are therefore more lipophilic.37 In contrast, the traditional dipolar aprotics have large, negative Log P (o/w) values so are more hydrophilic. […] Importantly, none of the succindiamide solvents have a Log P (o/w) above 4, the value that has been set as a threshold for bioaccumulation in the environment. […]
Equation S2. π = ν [DMSO]−ν [cyclohexane] […]
Determination of octanol/water partition coefficient (Log P(o/w))
Determination of the log P(o/w) was done by the shake flask method. 1.5 mL each of octanol and water were mixed in a 4 mL vial. 30 μL of the test solute and 10 μL of an internal standard (diglyme) were added and the mixture was shaken for 30 seconds and allowed to stand overnight. Samples (1 mL) were taken from both the aqueous and organic layers and added to 1.5 mL GC vials for GC analysis.
Log P(o/w) was obtained using Equation S5.

SMILES | Hexane misc. (Miscibility with hexane) | LEC ESRE (ESRE) | LEC TRβ (TRβ) | logP [1]
CCCCN(CC)C(=O)CCC(=O)N(CC)CCCC [EBSA, N,N′‐diethyl‐N,N′‐dibutylsuccindiamide] | yes^[a] | – | – | 2.72
CCCCN(C)C(=O)CCC(=O)N(C)CCCC [MBSA, N,N′‐dimethyl‐N,N′‐dibutylsuccindiamide] | yes^[a] | −2.4 Log M | – | 1.65
CCCCN1CCCC1=O [NBP, N‐Butylpyrrolidinone, reference compound] | miscible; also recorded: yes^[a] | – | – | 0.99
CN1CCCC1=O [NMP, N‐methyl‐2‐pyrrolidone, reference compound] | no^[a] | – | – | 
CCCCN(CCCC)C(=O)CCC(=O)N(CCCC)CCCC [TBSA, N,N,N′,N′‐tetrabutylsuccindiamide] | yes^[a] | – | – | 3.77
